Test results as given in the supplement of paper PMC10307832.

Experiments:
Test in all cases: relative viability (nuclei count vs DMSO), 5 days (fraction); higher = more cells survive
[1] = compound: CC1=CC=C(C=C1)C(=O)CN2C3=C(CCCC3)SC2=N [Pifithrin_alpha] + COc1cccc2cc(-c3nc([C@H]4CC[C@H](C(=O)O)CC4)n4ncnc(N)c34)[nH]c12 [OSI-027] (partner 0.5 µM)
How it was run: (§1)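 Nuclei were stained with Hoechst during a one-step fixation (final 0.05% Triton X-100, 1% formaldehyde, 1 ug/ml Hoechst) carried out 5 days after dosing, then counted on 4× images. The cells, lung cancer lines in 1536-well plates, had been dosed by pin tool the day after seeding with one drug alone or a fixed anchor-drug dose plus five library-drug doses (not always all listed) in √10 steps. Relative viability is the nuclei count in treated wells divided by that in vehicle wells, and each value is the median of duplicate plates.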

Axitinib + AZD7762 = compound: CNC(=O)c1ccccc1Sc1ccc2c(/C=C/c3ccccn3)n[nH]c2c1 [Axitinib] + NC(=O)Nc1cc(-c2cccc(F)c2)sc1C(=O)N[C@H]1CCCNC1 [AZD7762] (partner 0.2 µM)
How it was run: as §1

Bemcentinib + OSI-027 = compound: Nc1nc(Nc2ccc3c(c2)CC[C@@H](N2CCCC2)CC3)nn1-c1cc2c(nn1)-c1ccccc1CCC2 [Bemcentinib] + COc1cccc2cc(-c3nc([C@H]4CC[C@H](C(=O)O)CC4)n4ncnc(N)c34)[nH]c12 [OSI-027] (partner 0.5 µM)
How it was run: as §1

Bemcentinib + Phenformin = compound: Nc1nc(Nc2ccc3c(c2)CC[C@@H](N2CCCC2)CC3)nn1-c1cc2c(nn1)-c1ccccc1CCC2 [Bemcentinib] + N=C(N)NC(=N)NCCc1ccccc1 [Phenformin] (partner 250 µM)
How it was run: as §1

| Cell Line | relative viability ([1]; first compound 1 µM) | relative viability ([1]; first compound 3.162 µM) | relative viability ([1]; first compound 10 µM) | relative viability ([1]; first compound 31.62 µM) | relative viability ([1]; first compound 100 µM) | relative viability (Axitinib + AZD7762; first compound 0.005 µM) | relative viability (Axitinib + AZD7762; first compound 0.01581 µM) | relative viability (Axitinib + AZD7762; first compound 0.05 µM) | relative viability (Axitinib + AZD7762; first compound 0.1581 µM) | relative viability (Axitinib + AZD7762; first compound 0.5 µM) | relative viability (Bemcentinib + OSI-027; first compound 0.04 µM) | relative viability (Bemcentinib + OSI-027; first compound 0.1265 µM) | relative viability (Bemcentinib + OSI-027; first compound 0.4 µM) | relative viability (Bemcentinib + OSI-027; first compound 1.265 µM) | relative viability (Bemcentinib + OSI-027; first compound 4 µM) | relative viability (Bemcentinib + Phenformin; first compound 0.04 µM) | relative viability (Bemcentinib + Phenformin; first compound 0.1265 µM) | relative viability (Bemcentinib + Phenformin; first compound 0.4 µM) | relative viability (Bemcentinib + Phenformin; first compound 1.265 µM) | relative viability (Bemcentinib + Phenformin; first compound 4 µM) |
| --- | --- | --- | --- | --- | --- | --- | --- | --- | --- | --- | --- | --- | --- | --- | --- | --- | --- | --- | --- | --- |
| NCI-H1975 | 0.731 | 0.583 | 0.319 | 0.309 | 0.276 | 0.743 | 0.733 | 0.698 | 0.715 | 0.816 | 0.719 | 0.82 | 0.737 | 0.795 | 0.772 | 0.405 | 0.428 | 0.428 | 0.437 | 0.417 |
| NCI-H1651 | 0.682 | 0.664 | 0.666 | 0.449 | 0.6 | 0.466 | 0.416 | 0.481 | 0.467 | 0.533 | 0.771 | 0.811 | 0.738 | 0.741 | 0.74 | 0.352 | 0.324 | 0.283 | 0.316 | 0.354 |
| NCI-H647 | 0.589 | 0.757 | 0.556 | 0.517 | 0.57 | 0.449 | 0.32 | 0.583 | 0.36 | 0.539 | 0.696 | 0.799 | 0.637 | 0.666 | 0.649 | 0.631 | 0.488 | 0.674 | 0.62 | 0.544 |
| HCC-78 | 0.349 | 0.388 | 0.34 | 0.326 | 0.349 | 0.787 | 0.58 | 0.857 | 0.708 | 0.498 | 0.343 | 0.348 | 0.38 |  | 0.371 | 0.639 | 0.656 | 0.742 |  | 0.668 |
| NCI-H2126 |  | 0.671 | 0.594 | 0.658 | 0.563 | 0.936 | 0.997 | 0.996 | 0.97 | 1.01 | 0.679 | 0.692 | 0.756 | 0.688 | 0.683 | 0.502 | 0.496 | 0.51 | 0.596 | 0.568 |
| NCI-H522 | 0.439 | 0.624 | 0.668 | 0.761 | 0.777 | 0.754 | 0.924 | 0.787 | 0.9 | 0.794 | 0.714 | 0.548 | 0.614 | 0.656 | 0.728 | 0.598 | 0.733 | 0.729 | 0.722 | 0.674 |
| LC-2-ad |  | 0.84 | 0.797 |  | 0.675 | 0.845 | 0.845 | 0.834 | 0.841 | 0.952 | 0.892 | 0.906 | 0.761 | 0.964 | 0.927 | 0.535 | 0.601 | 0.592 | 0.602 | 0.588 |
| NCI-H23 | 0.627 | 0.535 | 0.446 |  | 0.535 | 0.328 | 0.216 | 0.23 | 0.241 | 0.288 | 0.581 | 0.612 | 0.713 | 0.447 | 0.684 | 0.813 | 0.822 | 0.803 | 0.659 | 0.755 |
| HCC-15 | 0.503 | 0.61 | 0.611 | 0.376 | 0.485 | 1.36 | 1.13 | 1.35 | 1.14 | 1.18 | 0.716 | 0.794 | 0.74 | 0.726 | 0.815 | 0.486 | 0.532 | 0.516 | 0.465 | 0.499 |
| H3255 | 0.552 | 0.608 | 0.504 | 0.521 | 0.572 | 0.841 | 0.734 | 0.891 | 0.915 | 0.879 | 0.597 | 0.66 | 0.558 | 0.66 | 0.666 | 0.383 | 0.318 | 0.354 | 0.418 | 0.361 |
| NCI-H838 | 0.381 | 0.35 | 0.349 | 0.263 | 0.258 | 0.929 | 0.97 | 0.963 | 0.926 | 1.06 | 0.38 | 0.434 | 0.371 | 0.442 | 0.372 | 0.544 | 0.493 | 0.561 | 0.659 | 0.566 |
| NCI-H2170 | 0.729 | 0.673 | 0.7 | 0.556 | 0.558 | 1.13 | 0.958 | 0.948 | 0.792 | 0.87 | 0.739 | 0.743 | 0.76 | 0.729 | 0.807 | 0.402 | 0.429 | 0.456 | 0.389 | 0.435 |
| EKVX | 0.668 |  | 0.569 | 0.734 | 0.604 | 0.782 | 0.617 | 0.883 | 0.636 | 0.644 | 0.57 | 0.669 | 0.753 | 0.793 | 0.824 | 0.256 | 0.215 | 0.239 | 0.277 | 0.237 |
| RERF-LC-KJ | 0.586 | 0.477 | 0.421 | 0.393 | 0.317 | 1 | 0.916 | 1.21 | 0.977 | 1.01 | 0.594 | 0.552 | 0.571 | 0.58 | 0.567 | 0.42 | 0.424 | 0.412 | 0.391 | 0.334 |
| LK-2 | 0.192 | 0.213 | 0.185 | 0.17 | 0.169 | 0.385 | 0.335 | 0.279 | 0.447 | 0.307 | 0.171 | 0.229 | 0.206 | 0.186 | 0.19 | 0.461 | 0.483 | 0.443 | 0.463 | 0.828 |
| NCI-H1666 | 0.789 | 0.771 | 0.651 | 0.642 | 0.585 | 0.836 | 0.816 | 0.879 | 0.865 | 0.84 | 0.82 | 0.991 | 0.883 | 0.885 | 0.923 | 0.572 | 0.675 | 0.564 | 0.564 | 0.635 |
